Where two headings read alike, the source gives them in different places.
Experiments:
[1] = test system: Hedgehog pathway activation on 10T1/2/Smo#3 cells (C3H10T1/2 cells transfected with human Smoothened receptor); test: Hedgehog pathway activation on 10T1/2/Smo#3 cells measured by ALP activity; type: cell-based; conditions: Mus musculus, C3H 10T1/2, 10T1/2/Smo#3 cells
Method in brief: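 Inhibition of alkaline phosphatase induction, read fluorometrically from 4-methylumbelliferyl phosphate conversion, gave IC50 values; CellTiter-Blue tracked viability in parallel. Cells were the human Smo-transfected 10T1/2/Smo#3 pool, stimulated by 10-20% hShh conditioned medium or the Smo agonist SAG (500 nM).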

[2] = test system: Hedgehog pathway activation (GLi-luciferase reporter) in Shh Light II reporter cells; test: Hedgehog pathway activation on Shh Light II reporter cells measured by luciferase activity; type: cell-based; conditions: Mus musculus, Shh Light II
Method in brief: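 Shh Light II reporter cells carrying a hedgehog-responsive GLi-luciferase reporter were stimulated either with 500 nM SAG, a direct Smoothened agonist, or with conditioned media containing human Sonic Hedgehog (hShh). Test compounds were evaluated for blocking this pathway activation, quantified by luciferase activity. Cell viability was monitored in parallel with the Celltiter-Blue® assay.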

[3] = measured by ALP activity, read-out: ALP (IC50, inhibition of Hedgehog pathway activation)
[4] = hShh activation, read-out: Shh (IC50, inhibition of Hedgehog pathway activation)

SMILES | IC50 [1, 3] | IC50 [2, 4] | IC50 ([1]; hShh activation, ALP activity, read-out: 10T1/2/Smo#3 ALP activity (hShh Activation)) | IC50 ([2]; SAG activation (500 nM SAG), read-out: Shh Light II luciferase activity (SAG activation)) | IC50 ([2]; hShh activation, read-out: Shh Light II luciferase activity (hShh activation))
CCC(C)(C)C(=O)Nc1cc(-c2cn3nc(-c4cccnc4C(F)(F)F)ccc3n2)ccc1Cl [Example 664, N-(2-chloro-5-(6-(2-(trifluoromethyl)pyridin-3-yl)imidazo[1,2-b]pyridazin-2-yl)phenyl)-2,2-dimethylbutanamide] | 105 nM | 24 nM | – | – | –
CC(C)(C(=O)Nc1cc(-c2cn3nc(-c4cccnc4C(F)(F)F)ccc3n2)ccc1Cl)C(F)(F)F [Example 665, N-(2-chloro-5-(6-(2-(trifluoromethyl)pyridin-3-yl)imidazo[1,2-b]pyridazin-2-yl)phenyl)-3,3,3-trifluoro-2,2-dimethylpropanamide] | 120 nM | 19 nM | – | – | –
CC(CC(=O)Nc1cc(-c2cn3nc(-c4cccnc4C(F)(F)F)ccc3n2)ccc1Cl)C(F)(F)F (centres unmarked) [Example 666, N-(2-chloro-5-(6-(2-(trifluoromethyl)pyridin-3-yl)imidazo[1,2-b]pyridazin-2-yl)phenyl)-4,4,4-trifluoro-3-methylbutanamide] | 527 nM | 64 nM | – | – | –
CCCC(C)(C)C(=O)Nc1cc(-c2cn3nc(-c4cccnc4C(F)(F)F)ccc3n2)ccc1Cl [Example 667, N-(2-chloro-5-(6-(2-(trifluoromethyl)pyridin-3-yl)imidazo[1,2-b]pyridazin-2-yl)phenyl)-2,2-dimethylpentanamide] | 203 nM | 64 nM | – | – | –
CC(C)OC(=O)Nc1cc(-c2cn3nc(-c4cccnc4C(F)(F)F)ccc3n2)ccc1Cl [Example 668, isopropyl 2-chloro-5-(6-(2-(trifluoromethyl)pyridin-3-yl)imidazo[1,2-b]pyridazin-2-yl)phenylcarbamate] | 631 nM | 283 nM | – | – | –
O=C(Nc1cc(-c2cn3nc(-c4cccnc4C(F)(F)F)ccc3n2)ccc1Cl)N1CC(F)(F)C1 [Example 669, N-(2-chloro-5-(6-(2-(trifluoromethyl)pyridin-3-yl)imidazo[1,2-b]pyridazin-2-yl)phenyl)-3,3-difluoroazetidine-1-carboxamide] | 125 nM | 28 nM | < 300 nM | < 300 nM | < 300 nM
CC(C)(C)CC(=O)Nc1cc(-c2cn3nc(-c4cccnc4C(F)(F)F)ccc3n2)ccc1Cl [Example 672, N-(2-chloro-5-(6-(2-(trifluoromethyl)pyridin-3-yl)imidazo[1,2-b]pyridazin-2-yl)phenyl)-3,3-dimethylbutanamide] | 565 nM | 86 nM | – | – | –
CCOC(=O)Nc1cc(-c2cn3nc(-c4cccnc4C(F)(F)F)ccc3n2)ccc1Cl [Example 673, ethyl 2-chloro-5-(6-(2-(trifluoromethyl)pyridin-3-yl)imidazo[1,2-b]pyridazin-2-yl)phenylcarbamate] | 678 nM | 169 nM | – | – | –
O=C(CC(F)(F)F)Nc1cc(-c2cn3nc(-c4cccnc4C(F)(F)F)ccc3n2)ccc1Cl [Example 675, N-(2-chloro-5-(6-(2-(trifluoromethyl)pyridin-3-yl)imidazo[1,2-b]pyridazin-2-yl)phenyl)-3,3,3-trifluoropropanamide] | 777 nM | 99 nM | – | – | –
CCN(CC)C(=O)Nc1cc(-c2cn3nc(-c4cccnc4C(F)(F)F)ccc3n2)ccc1F [Example 685, 1,1-diethyl-3-(2-fluoro-5-(6-(2-(trifluoromethyl)pyridin-3-yl)imidazo[1,2-b]pyridazin-2-yl)phenyl)urea] | 274 nM | 139 nM | – | – | –

Further lines, results first:

IC50 [1, 3] | IC50 [2, 4] | IC50 ([1]; hShh activation, ALP activity, read-out: 10T1/2/Smo#3 ALP activity (hShh Activation)) | IC50 ([2]; SAG activation (500 nM SAG), read-out: Shh Light II luciferase activity (SAG activation)) | IC50 ([2]; hShh activation, read-out: Shh Light II luciferase activity (hShh activation)) | SMILES
620 nM | 61 nM | – | – | – | O=C(Nc1cc(-c2cn3nc(-c4cccnc4C(F)(F)F)ccc3n2)ccc1Cl)C1CCCCC1 [Example 670, N-(2-chloro-5-(6-(2-(trifluoromethyl)pyridin-3-yl)imidazo[1,2-b]pyridazin-2-yl)phenyl)cyclohexanecarboxamide]
315 nM | 24 nM | – | – | – | O=C(Nc1cc(-c2cn3nc(-c4cccnc4C(F)(F)F)ccc3n2)ccc1Cl)C1CCCC1 [Example 671, N-(2-chloro-5-(6-(2-(trifluoromethyl)pyridin-3-yl)imidazo[1,2-b]pyridazin-2-yl)phenyl)cyclopentanecarboxamide]
140 nM | 59 nM | – | – | – | CC1(C(=O)Nc2cc(-c3cn4nc(-c5cccnc5C(F)(F)F)ccc4n3)ccc2F)CC1 [Example 674, N-(2-fluoro-5-(6-(2-(trifluoromethyl)pyridin-3-yl)imidazo[1,2-b]pyridazin-2-yl)phenyl)-1-methylcyclopropanecarboxamide]
721 nM | 111 nM | – | – | – | O=C(Nc1cc(-c2cn3nc(-c4cccnc4C(F)(F)F)ccc3n2)ccc1Cl)C1CC1 [Example 676, N-(2-chloro-5-(6-(2-(trifluoromethyl)pyridin-3-yl)imidazo[1,2-b]pyridazin-2-yl)phenyl)cyclopropanecarboxamide]
637 nM | 146 nM | – | – | – | O=C(Nc1cc(-c2cn3nc(-c4cccnc4C(F)(F)F)ccc3n2)ccc1F)C1CCCCC1 [Example 677, N-(2-fluoro-5-(6-(2-(trifluoromethyl)pyridin-3-yl)imidazo[1,2-b]pyridazin-2-yl)phenyl)cyclohexanecarboxamide]
342 nM | 139 nM | – | – | – | O=C(Nc1cc(-c2cn3nc(-c4cccnc4C(F)(F)F)ccc3n2)ccc1F)C1CCCC1 [Example 678, N-(2-fluoro-5-(6-(2-(trifluoromethyl)pyridin-3-yl)imidazo[1,2-b]pyridazin-2-yl)phenyl)cyclopentanecarboxamide]
658 nM | 254 nM | – | – | – | CC(C)(C)CC(=O)Nc1cc(-c2cn3nc(-c4cccnc4C(F)(F)F)ccc3n2)ccc1F [Example 679, N-(2-fluoro-5-(6-(2-(trifluoromethyl)pyridin-3-yl)imidazo[1,2-b]pyridazin-2-yl)phenyl)-3,3-dimethylbutanamide]
3610 nM | 518 nM | – | – | – | O=C(CC(F)(F)F)Nc1cc(-c2cn3nc(-c4cccnc4C(F)(F)F)ccc3n2)ccc1F [Example 680, 3,3,3-trifluoro-N-(2-fluoro-5-(6-(2-(trifluoromethyl)pyridin-3-yl)imidazo[1,2-b]pyridazin-2-yl)phenyl)propanamide]
6560 nM | 976 nM | – | – | – | O=C(Nc1cc(-c2cn3nc(-c4cccnc4C(F)(F)F)ccc3n2)ccc1F)C1CC1 [Example 681, N-(2-fluoro-5-(6-(2-(trifluoromethyl)pyridin-3-yl)imidazo[1,2-b]pyridazin-2-yl)phenyl)cyclopropanecarboxamide]
1740 nM | 571 nM | – | – | – | CCOC(=O)Nc1cc(-c2cn3nc(-c4cccnc4C(F)(F)F)ccc3n2)ccc1F [Example 682, ethyl 2-fluoro-5-(6-(2-(trifluoromethyl)pyridin-3-yl)imidazo[1,2-b]pyridazin-2-yl)phenylcarbamate]
2550 nM | 559 nM | – | – | – | CC(C)OC(=O)Nc1cc(-c2cn3nc(-c4cccnc4C(F)(F)F)ccc3n2)ccc1F [Example 683, isopropyl 2-fluoro-5-(6-(2-(trifluoromethyl)pyridin-3-yl)imidazo[1,2-b]pyridazin-2-yl)phenylcarbamate]
356 nM | 95 nM | – | – | – | O=C(Nc1cc(-c2cn3nc(-c4cccnc4C(F)(F)F)ccc3n2)ccc1F)N1CC(F)(F)C1 [Example 684, 3,3-difluoro-N-(2-fluoro-5-(6-(2-(trifluoromethyl)pyridin-3-yl)imidazo[1,2-b]pyridazin-2-yl)phenyl)azetidine-1-carboxamide]

Source: patent US8871767B2, “2-arylimidazo[1,2-B]pyridazine, 2-phenylimidazo[1,2-A]pyridine, and 2-phenylimidazo[1,2-A]pyrazine derivatives” (Hengrui (USA) Ltd., priority 2010, dated 2014)
